The record followed here is PMC10648877, “Novel Substituted Azoloazines with Anticoagulant Activity” (International Journal of Molecular Sciences, 2023).

The subject of data set [1] is platelet-poor plasma (PPP). Briefly: Activated partial thromboplastin time (APTT), rabbit blood coagulogram in vitro.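 Note: clotting time read chronometrically on a hemocoagulometer with commercial reagent kits, one of several coagulogram parameters alongside thrombin and prothrombin time.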 In kind it is biochemical. The following applies: 100 μM, M ± m, n = 6.
Experimental: Test compounds and the reference drug were evaluated at a concentration of 100 μM. Effect on rabbit blood coagulograms in vitro was determined chronometrically with a SOLAR hemocoagulometer (Minsk, Belarus) using commercial kits (Technology-Standard, Barnaul, Russia) as per the manufacturer’s instructions. The following parameters were determined: activated partial thromboplastin time, thrombin time, and prothrombin time.
Data set [2] has as its system platelet-poor plasma (PPP). The experiment in a line: Prothrombin time (PT), rabbit blood coagulogram in vitro.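 Note: clotting time read chronometrically on a hemocoagulometer using commercial reagent kits, with dabigatran etexilate at the same concentration as reference anticoagulant.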 The following applies: 100 μM, M ± m, n = 6.
Experimental: The study was performed on platelet-poor plasma (PPP) stabilized with a 3.8% sodium citrate solution in a ratio of 9:1 according to the method described in [34]. Dabigatran etexilate (Boehringer Ingelheim Pharma GmbH and Co., Ingelheim am Rhein, Germany) was used as the reference drug. Test compounds and the reference drug were evaluated at a concentration of 100 μM. Effect on rabbit blood coagulograms in vitro was determined chronometrically with a SOLAR hemocoagulometer (Minsk, Belarus) using commercial kits (Technology-Standard, Barnaul, Russia) as per the manufacturer’s instructions. The following parameters were determined: activated partial thromboplastin time, thrombin time, and prothrombin time.
Data set [3] concerns platelet-poor plasma (PPP). Briefly: Thrombin time (TT), rabbit blood coagulogram in vitro. In kind it is biochemical. The following applies: rabbit blood in vitro, 100 μM; for TT: M ± m, n = 6.

Regarding `Cc1cc2nc3c4ccccc4n(CCCN(C)C)c3nc2cc1C` [Compound 1i], the “APTT” value in data set [1] came out at 32.1 ± 4.8 s. Besides, the “PT” value in data set [2] was 13.8 ± 0.3 s. Besides, the “TT” value in data set [3] stood at 21.9 ± 1.2 s.

With `O=[N+]([O-])C1=NNc2ncnn2C1O` (centres unmarked) [Compound 14, 6-Nitro-7-hydroxy-4,7-dihydro-1,2,4-triazolo[5,1-c]triazinyl-4 guanidate], in data set [1], the “APTT” value was determined as 24.5 ± 0.8 s. For the same compound, in data set [2], the “PT” value was found to be 14.5 ± 0.5 s. Besides, the “TT” value in data set [3] was determined as 23.8 ± 3.5 s.

As for `CCCCn1c2ccccc2c2nc3cc(C)c(C)cc3nc21` [Compound 1g], the “APTT” value in data set [1] was determined as 30.6 ± 1.6 s. For the same compound, the “PT” value in data set [2] is given as 11.7 ± 0.4 s. Further, the “TT” value in data set [3] came to 34.1 ± 0.9 s.

The compound `Nc1ccc(-c2cc(-c3ccc(N)cc3)n3ccnc3n2)cc1` [Compound 7a, 4,4′-(Imidazo[1,2-a]pyrimidine-5,7-diyl)dianiline] showed a melting point of 169 to 171 °C. Moreover, in data set [1], the “APTT” value is on record as 56.23 ± 5.05 s. In addition, the “PT” value in data set [2] stood at 11.62 ± 1.00 s. In data set [3], the “anticoagulant activity / thrombin time prolongation compared with dabigatran etexilate” value is listed as “comparable to dabigatran etexilate in terms of activity” and the “TT” value is recorded as 66.58 ± 4.64 s.

Consider `C1=C(c2cccs2)n2ncnc2NC1c1ccccc1` (centres unmarked) [Compound 5c], for which the “APTT” value in data set [1] was 27.6 ± 1.9 s. Besides, the “PT” value in data set [2] came to 13.9 ± 0.2 s. For the same compound, in data set [3], the “TT” value is recorded as 41.4 ± 3.1 s.

In the case of `Cc1cc2nc3c4ccccc4n(CCN4CCOCC4)c3nc2cc1C` [Compound 1c], the “APTT” value in data set [1] is listed as 27.1 ± 2.0 s. For the same compound, in data set [2], the “PT” value was 13.8 ± 0.4 s. The “TT” value in data set [3] stood at 26.2 ± 1.0 s.

Take `CCCCCCCCCCCCSc1cnc2nnc(NC(=N)N)nn12` [Compound 15b]: the “APTT” value in data set [1] came out at 34.1 ± 0.5 s. In addition, the “PT” value in data set [2] is recorded as 14.0 ± 0.2 s. The “TT” value in data set [3] amounted to 33.7 ± 0.6 s.

On to `N=C(N)Nc1nnc2nnc(SC3CCCC3)n2n1` [Compound 16b, 6-Guanidino-3-cyclopentylthio-[1,2,4]triazolo[4,3-b][1,2,4,5]tetrazine], for which the melting point is 252 to 253 °C. In data set [1], the “APTT” value is recorded as 24.7 ± 1.2 s. Besides, the “PT” value in data set [2] came to 13.9 ± 0.5 s. Also, in data set [3], the “TT” value came to 22.7 ± 1.7 s.

Take `COC1C([N+](=O)[O-])=CNc2nc(C(F)(F)F)nn21` (centres unmarked) [Compound 12a, 2-Trifluoromethyl-6-nitro-7-methoxy-4,7-dihydro[1,5-a]pyrimidyl-4 guanidate]: the “APTT” value in data set [1] came to 25.1 ± 0.8 s. Besides, the “PT” value in data set [2] was found to be 14.2 ± 0.1 s. Also, the “TT” value in data set [3] worked out at 24.3 ± 3.5 s.

With `CN(C)CCCn1c2ccccc2c2nc3ccccc3nc21` [Compound 1j], the “APTT” value in data set [1] stood at 32.5 ± 0.1 s. Further, the “PT” value in data set [2] was 14.2 ± 0.4 s. The “TT” value in data set [3] turned out to be 22.0 ± 2.7 s.

With `Cc1cc2nc3c4ccccc4n(CCN(C)C)c3nc2cc1C` [Compound 1a], in data set [1], the “APTT” value is 22.1 ± 5.9 s. The “PT” value in data set [2] was found to be 14.5 ± 0.0 s. In addition, the “TT” value in data set [3] is listed as 22.7 ± 2.0 s.

`C1=C(c2ccccc2)n2ncnc2NC1c1cccs1` (centres unmarked) [Compound 5b]: in data set [1], the “APTT” value is 25.9 ± 2.2 s. The “PT” value in data set [2] is listed as 15.8 ± 0.3 s. For the same compound, the “TT” value in data set [3] was found to be 21.0 ± 0.0 s.

For `CCCn1c2ccccc2c2nc3cc(C)c(C)cc3nc21` [Compound 1e], the “APTT” value in data set [1] is reported as 29.6 ± 0.2 s. For the same compound, the “PT” value in data set [2] stood at 13.4 ± 0.1 s. Moreover, the “TT” value in data set [3] came out at 38.0 ± 0.5 s.

For `CCCn1c2ccccc2c2nc3ccccc3nc21` [Compound 1f], the “APTT” value in data set [1] came to 24.8 ± 4.2 s. The “PT” value in data set [2] was determined as 13.1 ± 0.3 s. Also, in data set [3], the “increase of thrombin time relative to the control” value was found to be 3.5 times and the “TT” value stood at 39.3 ± 1.8 s.

Consider `N=C(N)Nc1nnc2ncc(SCc3ccccc3)n2n1` [Compound 15a], for which, in data set [1], the “APTT” value came to 34.0 ± 0.6 s. For the same compound, in data set [2], the “PT” value is on record as 14.5 ± 0.3 s. The “TT” value in data set [3] is recorded as 32.8 ± 0.8 s.

The compound `CCOC(=O)C1=C(C)Nc2ncnn2C1c1ccc(NC(=O)CN)cc1` (centres unmarked) [Compound 10b, Ethyl 7-(4-(2-aminoacetamido)phenyl)-5-methyl-4,7-dihydro-[1,2,4]triazolo[1,5-a]pyrimi-dine-6-carboxy-late] gave a melting point of 270 to 272 °C. Moreover, the “APTT” value in data set [1] is 30.6 ± 2.6 s. In data set [2], the “PT” value worked out at 12.7 ± 0.2 s. In data set [3], the “TT” value came out at 27.1 ± 1.4 s.

Take `CCOC(=O)C1=C(C)Nc2ncnn2C1c1ccccc1` (centres unmarked) [Compound 8c]: the “APTT” value in data set [1] stood at 34.6 ± 0.7 s. In addition, in data set [2], the “PT” value is on record as 14.2 ± 0.1 s. Further, the “TT” value in data set [3] was determined as 34.7 ± 0.7 s.

Turning to `CCOC(=O)C1=C(C)Nc2ncnn2C1c1cccc(NC(=O)CN)c1` (centres unmarked) [Compound 10a, Ethyl 7-(3-(2-aminoacetamido)phenyl)-5-methyl-4,7-dihydro-[1,2,4]triazolo[1,5-a]pyrimi-dine-6-carboxylate], the melting point was in the range of 270 to 272 °C. Moreover, in data set [1], the “APTT” value was determined as 30.9 ± 0.6 s. Moreover, the “PT” value in data set [2] is recorded as 13.2 ± 1.0 s. Besides, in data set [3], the “increase of thrombin time relative to the control” value amounted to 3.5 times and the “TT” value turned out to be 48.6 ± 22.4 s.

`Nc1ccc(-c2cc(-c3cccs3)n3ncnc3n2)cc1` [Compound 7b, 4-(7-(Thiophen-2-yl)-[1,2,4]triazolo[1,5-a]pyrimidin-5-yl)aniline] came in with a melting point of 211 to 214 °C. For the same compound, in data set [1], the “APTT” value is 35.0 ± 0.2 s. Moreover, the “PT” value in data set [2] is recorded as 13.6 ± 0.5 s. The “TT” value in data set [3] was determined as 32.3 ± 0.9 s.

The compound `N=C(N)Nc1nnc2nnc(SCc3cccc(F)c3)n2n1` [Compound 16] returned a melting point of 235 to 237 °C. For the same compound, the “APTT” value in data set [1] is recorded as 26.3 ± 1.1 s. Further, in data set [2], the “PT” value worked out at 14.1 ± 0.3 s. In data set [3], the “TT” value is recorded as 25.9 ± 1.6 s.

For the compound `CN(C)CCn1c2ccccc2c2nc3ccccc3nc21` [Compound 1b], in data set [1], the “APTT” value is reported as 26.8 ± 2.4 s. Besides, the “PT” value in data set [2] was found to be 13.3 ± 0.2 s. Further, in data set [3], the “TT” value stood at 23.9 ± 0.9 s.

`CCCCCCCCSc1nnc2nnc(NC(=N)N)nn12` [Compound 16a, 6-Guanidino-3-octylthio-[1,2,4]triazolo[4,3-b][1,2,4,5]tetrazine] showed a melting point of over 260 °C. The “APTT” value in data set [1] came to 29.1 ± 1.4 s. In data set [2], the “PT” value turned out to be 12.2 ± 0.2 s. The “TT” value in data set [3] is given as 34.3 ± 4.7 s.

As to `C1=C(c2ccccc2)n2ncnc2NC1c1ccccc1` (centres unmarked) [Compound 5a], the “APTT” value in data set [1] is listed as 26.3 ± 2.9 s. Moreover, the “PT” value in data set [2] came out at 13.4 ± 0.1 s. In data set [3], the “increase of thrombin time relative to the control” value is reported as 3.5 times and the “TT” value is recorded as 43.8 ± 4.3 s.

On to `c1ccc2nc3c(nc2c1)c1ccccc1n3CCN1CCOCC1` [Compound 1d], for which, in data set [1], the “APTT” value was found to be 18.2 ± 0.5 s. Also, the “PT” value in data set [2] is on record as 13.4 ± 0.3 s. Moreover, in data set [3], the “TT” value is 26.7 ± 1.3 s.

In the case of `CCCCn1c2ccccc2c2nc3ccccc3nc21` [Compound 1h], the “APTT” value in data set [1] amounted to 25.7 ± 3.1 s. For the same compound, the “PT” value in data set [2] was determined as 13.9 ± 0.1 s. In data set [3], the “TT” value turned out to be 35.6 ± 1.1 s.

As usually defined, the melting point is the temperature of the solid-liquid transition.
